Laboratory results: US20240409556A1, “BENZOPIPERAZINE AND RELATED ANALOGS FOR INHIBITING YAP/TAZ-TEAD” (Springworks Therapeutics, Inc., priority 2023, published 2024)
pEC50, pIC50: −log10 of the molar value.

Legend:
Type in all cases: cell-based
[1] = tested on: NCI-H2052 mesothelioma cell line; experiment: Mesothelioma cell line proliferation assay, NCI-H2052 (ATPlite); conditions: NCI-H2052 cells, 6 days with compound, cell viability by ATPlite
Experimental: (§1) Example 57: Activity of Compounds of the Disclosure in Mesothelioma Cell Line Proliferation Assays
(§2) Mesothelioma cell lines, NCI-H226 and NCI-H2052 (both sourced from the ATCC cell culture collection) were plated in 96-well plates (Corning® 96 Well White Polystyrene Microplate clear flat bottom, white polystyrene (TC-Treated)), at 1500 cells/well in full medium (RPMI 1640 ATCC modification with L-glutamine, HEPES, Phenol Red, Sodium Pyruvate, High glucose, Low sodium bicarbonate and 10% fetal bovine serum). Cells were incubated overnight at 37° C. in an incubator with 5% CO2. Then compounds, dissolved in DMSO, were added in dose-response. Cells were incubated with compound dilutions for another 6 days at 37° C. in an incubator with 5% CO2. Cell viability was quantitated using the ATPlite kit (Perkin-Elmer) and the luminescence was read-out using an Envision instrument (Perkin-Elmer). The amount of relative light units produced using the ATPlite kit was used to calculate percent of inhibition.
(§3) The activities of some example compounds are depicted in Table 4. The activity ranges A, B and C refer to EC50 values in the mesothelioma cell line proliferation assay as described as follows: “A”: EC50<1 μM; “B”: 1 μM≤EC50≤10 μM and “C”: EC50>10 μM; NT: not tested.

[2] = tested on: NCI-H226 mesothelioma cell line; experiment: Mesothelioma cell line proliferation assay, NCI-H226 (ATPlite); conditions: NCI-H226 cells, 6 days with compound, cell viability by ATPlite
Experimental: as §1, §2, §3

[3] = tested on: YAP/TAZ-TEAD transcription; experiment: Reporter gene assay for measuring the inhibition of YAP/TAZ-TEAD transcription (TEAD-responsive element luciferase reporter in Hek293T cells); conditions: 24 hours incubation
Outline: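 HEK293T cells transiently transfected with a TEAD-responsive luciferase reporter were exposed to compounds for 24 h at 37° C/5% CO2, then luminescence was read. Percent inhibition normalised to vehicle (0%) and positive-control inhibitor (100%); IC50 derived.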

**Q.** How did the pEC50 ([1]; Homo sapiens, 144 h) turn out when `O=C(O)C1CCN2c3ccccc3N(c3ccc(C(F)(F)F)cc3)CC2C1` (stereo not drawn) [65B, (cis)- or (trans)-5-(4-(trifluoromethyl)phenyl)-6,6a,7,8,9,10-hexahydro-5H-pyrido[1,2-a]quinoxaline-8-carboxylic acid] was run?
**A.** > 6.00

**Q.** And the pEC50 ([2]; Homo sapiens, 144 h)?
**A.** > 6.00

**Q.** How did the pIC50 [3] turn out when `CC(=O)NCC1CN(c2ccc(C(F)(F)F)cc2)c2ccc(C)nc2O1` (single isomer, unassigned) [77-En1, (R)- or (S)-N-((6-methyl-1-(4-(trifluoromethyl)phenyl)-2,3-dihydro-1H-pyrido[2,3-b][1,4]oxazin-3-yl)methyl)acetamide] was run?
**A.** > 6.00

**Q.** What about the pEC50 ([1]; Homo sapiens, 144 h) of the same compound?
**A.** > 6.00

**Q.** What about the pEC50 ([2]; Homo sapiens, 144 h) of the same compound?
**A.** > 6.00

**Q.** How did the pEC50 ([1]; Homo sapiens, 144 h) turn out when `O=C(O)C1CCN2c3ncccc3N(c3ccc(C(F)(F)F)cc3)CC2C1` [96B-En1, (6aS,8S)- or (6aR,8S)- or (6aR,8R)- or (6aS,8R)-5-(4-(trifluoromethyl)phenyl)-6,6a,7,8,9,10-hexahydro-5H-dipyrido[1,2-a:3′,2′-e]pyrazine-8-carboxylic acid] was run?
**A.** > 6.00

**Q.** And the pEC50 ([2]; Homo sapiens, 144 h)?
**A.** > 6.00

**Q.** `C=CC(=O)NCC1CN(c2ccc(C(F)(F)F)cc2)c2cccnc2O1` (centres unmarked) [48-En2, N-((1-(4-(trifluoromethyl)phenyl)-2,3-dihydro-1H-pyrido[2,3-b][1,4]oxazin-3-yl)methyl)acrylamide] was tested. Which pEC50 [1] did it give?
**A.** > 6.00

**Q.** And the pEC50 [2]?
**A.** > 6.00

**Q.** What does the source list for `CC(=O)NCC1CN(c2ccc(C(F)(F)F)cc2)c2ccccc2N1` (single isomer, unassigned) [34-En2, (R)- or (S)-N-((4-(4-(trifluoromethyl)phenyl)-1,2,3,4-tetrahydroquinoxalin-2-yl)methyl)acetamide]?
**A.** pIC50 ([3]; Homo sapiens, HEK-293T, 24 h): > 6.00; pEC50 [2]: > 6.00

**Q.** With `C=CC(=O)N1CCN2c3nccnc3N(c3ccc(C(F)(F)F)cc3)CC2C1` (centres unmarked) [41-En2, 1-(5-(4-(trifluoromethyl)phenyl)-5,6,6a,7,9,10-hexahydro-8H-dipyrazino[1,2-a:2′,3′-e]pyrazin-8-yl)prop-2-en-1-one] as the compound, how does the pEC50 [1] read?
**A.** > 6.00

**Q.** What about the pEC50 [2] of the same compound?
**A.** > 6.00

**Q.** Which results are given for `C=CC(=O)N1CCN2c3ccccc3N(c3ccc(C(F)(F)F)cc3)CC2C1` (centres unmarked) [compound 14, 1-(6-(4-(trifluoromethyl)phenyl)-1,2,4,4a,5,6-hexahydro-3H-pyrazino[1,2-a]quinoxalin-3-yl)prop-2-en-1-one]?
**A.** pIC50 ([3]; Homo sapiens, HEK-293T, 24 h): > 6.00; pEC50 [2]: > 6.00

**Q.** `C=CC(=O)N1CCN2c3nccnc3N(c3ccc(C(F)(F)F)cc3)CC2C1` (centres unmarked) [41-En1, 1-(5-(4-(trifluoromethyl)phenyl)-5,6,6a,7,9,10-hexahydro-8H-dipyrazino[1,2-a:2′,3′-e]pyrazin-8-yl)prop-2-en-1-one] was tested. Which pEC50 ([1]; Homo sapiens, 144 h) did it give?
**A.** > 6.00

**Q.** What about the pEC50 ([2]; Homo sapiens, 144 h) of the same compound?
**A.** > 6.00

**Q.** With `CC(=O)NC[C@@H]1CN(c2ccc(C(F)(F)F)cc2)c2cccnc2N1` [39-En2, (R)-N-((1-(4-(trifluoromethyl)phenyl)-1,2,3,4-tetrahydropyrido[2,3-b]pyrazin-3-yl)methyl)acetamide] as the compound, how does the pIC50 ([3]; Homo sapiens, HEK-293T, 24 h) read?
**A.** > 6.00

**Q.** With `CC(=O)NCC1CN(c2ccc(C(F)(F)F)cc2)c2ccc(C)nc2O1` (single isomer, unassigned) [77-En2, (R)- or (S)-N-((6-methyl-1-(4-(trifluoromethyl)phenyl)-2,3-dihydro-1H-pyrido[2,3-b][1,4]oxazin-3-yl)methyl)acetamide] as the compound, how does the pIC50 [3] read?
**A.** > 6.00

**Q.** `C=CC(=O)N1CCN2C(C1)CN(c1ccc(C(F)(F)F)cc1)C1C2C1(Cl)Cl` (centres unmarked) [compound 43, 1-(1,1-dichloro-2-(4-(trifluoromethyl)phenyl)octahydrocyclopropa[e]pyrazino[1,2-a]pyrazin-5(1H)-yl)prop-2-en-1-one] was tested. Which pIC50 ([3]; Homo sapiens, HEK-293T, 24 h) did it give?
**A.** > 6.00

**Q.** `CC(=O)NCC1CN(c2ccc(C(F)(F)F)cc2)c2cc(Cl)cnc2O1` (centres unmarked) [compound 75, N-((7-chloro-1-(4-(trifluoromethyl)phenyl)-2,3-dihydro-1H-pyrido[2,3-b][1,4]oxazin-3-yl)methyl)acetamide] was tested. Which pIC50 [3] did it give?
**A.** > 6.00

**Q.** `O=C1CN2c3ccccc3N(c3ccc(C(F)(F)F)cc3)CC2CN1` (centres unmarked) [compound 10, 6-(4-(trifluoromethyl)phenyl)-4,4a,5,6-tetrahydro-1H-pyrazino[1,2-a]quinoxalin-2(3H)-one] was tested. Which pIC50 ([3]; Homo sapiens, HEK-293T, 24 h) did it give?
**A.** 5.00 to 6.00

**Q.** With `NC(=O)C1CCN2c3ccccc3N(c3ccc(C(F)(F)F)cc3)CC2C1` (stereo not drawn) [117B-En1, (cis)- or (trans)-5-(4-(trifluoromethyl)phenyl)-6,6a,7,8,9,10-hexahydro-5H-pyrido[1,2-a]quinoxaline-8-carboxamide] as the compound, how does the pIC50 ([3]; Homo sapiens, HEK-293T, 24 h) read?
**A.** > 6.00

**Q.** How did the pIC50 [3] turn out when `O=C(O)C1(F)CCN2c3ccccc3N(c3ccc(C(F)(F)F)cc3)CC2C1` [123-D3, (6aS,8S)- or (6aR,8S)- or (6aR,8R)- or (6aS,8R)-8-fluoro-5-(4-(trifluoromethyl)phenyl)-6,6a,7,8,9,10-hexahydro-5H-pyrido[1,2-a]quinoxaline-8-carboxylic acid] was run?
**A.** > 6.00

**Q.** With `C=CC(=O)NCC1CN(c2ccc(C(F)(F)F)cc2)c2cccnc2O1` (centres unmarked) [48-En1, N-((1-(4-(trifluoromethyl)phenyl)-2,3-dihydro-1H-pyrido[2,3-b][1,4]oxazin-3-yl)methyl)acrylamide] as the compound, how does the pEC50 ([1]; Homo sapiens, 144 h) read?
**A.** > 6.00

**Q.** What about the pEC50 ([2]; Homo sapiens, 144 h) of the same compound?
**A.** > 6.00

**Q.** `CC(=O)N1CCN2c3ccccc3N(c3ccc(C(F)(F)F)cc3)CC2C1` (single isomer, unassigned) [15-En1, (R)- or (S)-1-(6-(4-(trifluoromethyl)phenyl)-1,2,4,4a,5,6-hexahydro-3H-pyrazino[1,2-a]quinoxalin-3-yl)ethan-1-one] was tested. Which pIC50 [3] did it give?
**A.** 5.00 to 6.00

**Q.** `C=CC(=O)NCC1CN(c2ccc(C(F)(F)F)cc2)c2ccccc2N1CC(N)=O` (centres unmarked) [compound 11, N-((1-(2-amino-2-oxoethyl)-4-(4-(trifluoromethyl)phenyl)-1,2,3,4-tetrahydroquinoxalin-2-yl)methyl)acrylamide] was tested. Which pIC50 ([3]; Homo sapiens, HEK-293T, 24 h) did it give?
**A.** > 6.00

**Q.** How did the pIC50 ([3]; Homo sapiens, HEK-293T, 24 h) turn out when `C=CC(=O)NCC1CN(c2ccc(C(F)(F)F)cc2)c2ccccc2N1CCC(=O)NC` (centres unmarked) [compound 9, N-((1-(3-(methylamino)-3-oxopropyl)-4-(4-(trifluoromethyl)phenyl)-1,2,3,4-tetrahydroquinoxalin-2-yl)methyl)acrylamide] was run?
**A.** > 6.00

**Q.** `FC(F)(F)c1ccc(N2CC3CC(c4nnn[nH]4)CCN3c3ccccc32)cc1` (single isomer, unassigned) [121-D3, 8-(1H-tetrazol-5-yl)-5-(4-(trifluoromethyl)phenyl)-6,6a,7,8,9,10-hexahydro-5H-pyrido[1,2-a]quinoxaline] was tested. Which pIC50 [3] did it give?
**A.** 5.00 to 6.00

**Q.** With `C=CC(=O)N1CCN2C(C1)CN(c1ccc(C(F)(F)F)cc1)C1CCC12` (single isomer, unassigned) [42(Dia1), 1-(3-(4-(trifluoromethyl)phenyl)decahydro-6H-cyclobuta[e]pyrazino[1,2-a]pyrazin-6-yl)prop-2-en-1-one] as the compound, how does the pIC50 ([3]; Homo sapiens, HEK-293T, 24 h) read?
**A.** > 6.00

**Q.** `FC(F)(F)c1ccc(N2CCN(Cc3cnco3)c3ccccc32)cc1` [compound 67, 5-((4-(4-(trifluoromethyl)phenyl)-3,4-dihydroquinoxalin-1(2H)-yl)methyl)oxazole] was tested. Which pIC50 ([3]; Homo sapiens, HEK-293T, 24 h) did it give?
**A.** > 6.00

**Q.** How did the pIC50 ([3]; Homo sapiens, HEK-293T, 24 h) turn out when `Cn1cncc1CN1CCN(c2ccc(C(F)(F)F)cc2)c2ccccc21` [compound 60, 1-((1-methyl-1H-imidazol-5-yl)methyl)-4-(4-(trifluoromethyl)phenyl)-1,2,3,4-tetrahydroquinoxaline] was run?
**A.** > 6.00

**Q.** How did the pIC50 [3] turn out when `CNS(=O)(=O)N1CCN2c3ccccc3N(c3ccc(C(F)(F)F)cc3)CC2C1` (single isomer, unassigned) [32-En2, (R)- or (S)-N-methyl-6-(4-(trifluoromethyl)phenyl)-1,2,4,4a,5,6-hexahydro-3H-pyrazino[1,2-a]quinoxaline-3-sulfonamide] was run?
**A.** > 6.00

**Q.** And the pEC50 [2]?
**A.** > 6.00

**Q.** How did the pIC50 ([3]; Homo sapiens, HEK-293T, 24 h) turn out when `O=C(O)C1CCN2c3ncc(Cl)cc3N(c3ccc(C(F)(F)F)cc3)CC2C1` (stereo not drawn) [100A, (cis)- or (trans)-3-chloro-5-(4-(trifluoromethyl)phenyl)-6,6a,7,8,9,10-hexahydro-5H-dipyrido[1,2-a:3′,2′-e]pyrazine-8-carboxylic acid] was run?
**A.** > 6.00

**Q.** How did the pIC50 ([3]; Homo sapiens, HEK-293T, 24 h) turn out when `O=C(O)C1CCN2c3ncccc3N(c3ccc(C(F)(F)F)cc3)CC2C1` (single isomer, unassigned) [96A, (cis)- or (trans)-5-(4-(trifluoromethyl)phenyl)-6,6a,7,8,9,10-hexahydro-5H-dipyrido[1,2-a:3′,2′-e]pyrazine-8-carboxylic acid] was run?
**A.** > 6.00

**Q.** How did the pIC50 ([3]; Homo sapiens, HEK-293T, 24 h) turn out when `CC(=O)NCC1CN(c2ccc(C(F)(F)F)cc2)c2ccccc2N1CCO` (centres unmarked) [compound 2, N-((1-(2-hydroxyethyl)-4-(4-(trifluoromethyl)phenyl)-1,2,3,4-tetrahydroquinoxalin-2-yl)methyl)acetamide] was run?
**A.** < 5.00

**Q.** With `CNC(=O)N1CCN2c3ncccc3N(c3ccc(C(F)(F)F)cc3)CC2C1` (centres unmarked) [compound 52, N-methyl-5-(4-(trifluoromethyl)phenyl)-5,6,6a,7,9,10-hexahydro-8H-pyrazino[1,2-a]pyrido[3,2-e]pyrazine-8-carboxamide] as the compound, how does the pIC50 ([3]; Homo sapiens, HEK-293T, 24 h) read?
**A.** > 6.00

**Q.** How did the pIC50 [3] turn out when `CC(=O)NCC1CN(c2ccc(C(F)(F)F)cc2)c2ccccc2O1` (single isomer, unassigned) [36-En1, (R)- or (S)-N-((4-(4-(trifluoromethyl)phenyl)-3,4-dihydro-2H-benzo[b][1,4]oxazin-2-yl)methyl)acetamide] was run?
**A.** > 6.00

**Q.** And the pEC50 [2]?
**A.** > 6.00
